From ChEMBL document CHEMBL1201862, “PubChem BioAssay data set” (2004)
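Cultured in 96-well plates, cells were exposed to test compound for 48 hours across five concentrations. At the GI50, growth is halved.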 Activity calls are given as the source filed them. Cut-off read from the data, not from the text of the source: active = GI50 up to about 1.1 µM and inactive = higher.

Tests used:
Experiment in all cases: inhibition of tumour cell growth, NCI panel, 48 h
[1] = tested on: Malme-3M
[2] = tested on: Hs-578T
[3] = tested on: HCC 2998
[4] = tested on: HOP-92
[5] = tested on: UACC-62
[6] = tested on: SK-OV-3
[7] = tested on: HT-29
[8] = tested on: SW-620
[9] = tested on: DU-145
[10] = tested on: M14
[11] = tested on: SNB-19
[12] = tested on: MDA-MB-435
[13] = tested on: MCF7
[14] = tested on: SF-539
[15] = tested on: COLO 205
[16] = tested on: UO-31
[17] = tested on: NCI/ADR-RES
[18] = tested on: MDA-N
[19] = tested on: HCT-116
[20] = tested on: CCRF-CEM

Measured: GI50

NC(=O)c1cc(N(CCO)CCO)c([N+](=O)[O-])cc1[N+](=O)[O-]
inactive: [1] > 100 µM | [2] > 100 µM | [3] > 100 µM | [4] > 100 µM | [5] > 100 µM | [6] > 100 µM | [7] > 100 µM | [8] > 100 µM | [9] > 100 µM | [10] > 100 µM | [11] > 100 µM | [12] > 100 µM | [13] > 100 µM | [14] > 100 µM | [15] > 100 µM | [16] > 100 µM | [17] > 100 µM | [18] > 100 µM | [19] > 100 µM | [20] > 100 µM

COc1c(O)ccc2c1CN1CCc3cc4c(cc3C1C2)OCO4 (stereo not given)
inactive: [1] 33.9 µM | [2] 27.4 µM | [3] 31.6 µM | [4] 51.8 µM | [5] 27.5 µM | [6] 23.1 µM | [7] 32.7 µM | [8] 29.9 µM | [9] 21.8 µM | [10] 34.8 µM | [11] 31.3 µM | [12] 21.8 µM | [13] 21.6 µM | [14] 40 µM | [15] 36.1 µM | [16] 29.6 µM | [17] 20.9 µM | [18] 26.4 µM | [19] 24 µM | [20] 30.8 µM

CSC(=S)Nc1cccc(C)n1
inactive: [1] > 100 µM | [2] > 100 µM | [3] > 100 µM | [4] > 100 µM | [5] > 100 µM | [6] > 100 µM | [7] > 100 µM | [8] > 100 µM | [9] > 100 µM | [10] > 100 µM | [11] > 100 µM | [12] > 100 µM | [13] > 100 µM | [14] > 100 µM | [15] > 100 µM | [16] > 100 µM | [17] > 100 µM | [18] > 100 µM | [19] > 100 µM | [20] > 100 µM

CCOC(=O)C(Cc1ccc(O)cc1)Nc1nc(=O)c2c(=O)oc(Cl)cc2o1 (stereo not given)
inactive: [1] 3.17 µM | [2] 3.07 µM | [3] 6.59 µM | [4] 7.31 µM | [5] 11.4 µM | [6] 14.4 µM | [7] 3.52 µM | [8] 3.18 µM | [9] 17.3 µM | [10] 4.15 µM | [11] 10.8 µM | [12] 4.52 µM | [13] 4.16 µM | [14] 5.79 µM | [15] 8.49 µM | [16] 10.9 µM | [17] 20.9 µM | [18] 2.85 µM | [19] 6.38 µM | [20] 2.7 µM

CNC1Cc2c[nH]c3cccc(c23)C12C=C(C)C(=O)O2 (stereo not given)
inactive: [1] > 100 µM | [2] > 100 µM | [3] > 100 µM | [4] > 100 µM | [5] > 100 µM | [6] > 100 µM | [7] > 100 µM | [8] > 100 µM | [9] > 100 µM | [10] > 100 µM | [11] > 100 µM | [12] > 100 µM | [13] > 100 µM | [14] > 100 µM | [15] > 100 µM | [16] > 100 µM | [17] > 100 µM | [18] > 100 µM | [19] > 100 µM | [20] > 100 µM

O=C(CN1CCCCC1)CC(O)(C(F)(F)F)C(F)(F)F
inactive: [1] > 100 µM | [2] 95.9 µM | [3] > 100 µM | [4] > 100 µM | [5] > 100 µM | [6] > 100 µM | [7] > 100 µM | [8] > 100 µM | [9] > 100 µM | [10] > 100 µM | [11] > 100 µM | [12] > 100 µM | [13] > 100 µM | [14] > 100 µM | [15] > 100 µM | [16] > 100 µM | [17] > 100 µM | [18] > 100 µM | [19] > 100 µM | [20] > 100 µM
